Molecules are shown by their SMILES.

The conditions of data set [1]: source not stated; cited from earlier work.
In a further data set the target is T1, human BCRP (ABCG2) (Homo sapiens, UniProt Q9UNQ0).
T1 construct: expressed in transfected cells; host or cells: MDCK type II (canine kidney) cells transduced with human ABCG2 (MDCK-BCRP)
T1 sequence (Q9UNQ0 1-655): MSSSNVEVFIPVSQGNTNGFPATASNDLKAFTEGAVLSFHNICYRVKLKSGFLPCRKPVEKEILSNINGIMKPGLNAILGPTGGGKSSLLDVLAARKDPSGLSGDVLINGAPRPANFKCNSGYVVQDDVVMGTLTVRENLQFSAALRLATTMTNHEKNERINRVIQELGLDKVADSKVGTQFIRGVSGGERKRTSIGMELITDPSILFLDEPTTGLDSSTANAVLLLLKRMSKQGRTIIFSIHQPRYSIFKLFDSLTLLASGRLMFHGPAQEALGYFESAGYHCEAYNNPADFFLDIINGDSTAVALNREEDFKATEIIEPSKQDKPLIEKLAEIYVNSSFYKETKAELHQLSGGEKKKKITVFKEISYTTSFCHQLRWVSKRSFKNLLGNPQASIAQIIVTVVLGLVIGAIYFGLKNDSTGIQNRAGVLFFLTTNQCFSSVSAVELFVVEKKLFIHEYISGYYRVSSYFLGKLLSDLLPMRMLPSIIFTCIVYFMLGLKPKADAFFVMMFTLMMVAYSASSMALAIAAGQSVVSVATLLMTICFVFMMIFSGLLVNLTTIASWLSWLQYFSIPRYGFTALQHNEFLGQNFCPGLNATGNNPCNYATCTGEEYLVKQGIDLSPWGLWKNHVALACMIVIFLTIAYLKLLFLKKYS
The data set can be described thus: Concentration equilibrium transport assay (CETA), MDCK cells transduced with human ABCG2, with zosuquidar. The format is in vitro ADME. As to conditions: omacetaxine 100 nM, zosuquidar 1 μM, up to 4 h. As for the experimental part: In vitro transport studies were performed using the LLC pig kidney cell line (LLC-PK1) and sub-lines transduced with murine Abcb1a (LLC-Mdr1a) or human ABCB1 (LLC-MDR1). Similarly, in vitro transport studies were conducted in the parental Madin–Darby canine kidney (MDCK) type II cell line (MDCK-Parent) and murine Abcg2 (MDCK-Bcrp1) or human ABCG2 (MDCK-BCRP) transduced sublines. Concentration equilibrium transport assays (CETA) were performed as previously described. Briefly, cells were grown on polycarbonate membrane filters (3.0 µm pores, 24 mm diameter; Costar Corning, NY, USA) for 4 days. Next, 2 mL of MEM medium containing 10% FCS and omacetaxine (100 nM) was added to both the apical and basal compartments. Then, [14C]-inulin ([…]) was added basolateral to check the membrane integrity. Zosuquidar 1 μM was added to all wells containing MDCK cells to inhibit endogenous (canine) ABCB1. […] The integrity of the membrane was checked by taking 20 μL samples from both apical and basolateral sides for radioactivity counting. […] OMA concentrations were measured using an LC-MS/MS system that consisted of an UltiMate 3000 LC System (Dionex, Sunnyvale, CA, USA) and an API 4000 mass spectrometer (Sciex, Framingham, MA, USA).

The conditions of data set [2]: humans, cited from earlier work.

By Cmax is commonly meant the highest concentration seen after dosing. The half-life is the time in which the quantity being followed falls by half. As to `COC(=O)C[C@](O)(CCCC(C)(C)O)C(=O)O[C@@H]1C(OC)=C[C@]23CCCN2CCc2cc4c(cc2[C@H]13)OCO4` [OMA, Omacetaxine mepesuccinate], the logP value in data set [1] was 1.88. For the same molecule, the “substrate of BCRP (translocation between apical and basolateral compartments)” value at human BCRP (ABCG2) is listed as “not a substrate”. The “time to reach Cmax plasma” value in data set [2] (s.c. administration) is 1 h. Also, in data set [2] (DrugBank, read-out: reported Cmax plasma value), the Cmax was 43 nM. Besides, in data set [2], the half-life was 7 h.
